From ChEMBL document CHEMBL5303573, “Mapping human microbiome drug metabolism by gut bacteria and their genes” (Nature, 2019)

Assays:
[1] = The drug is tested on Bacteroides coprophilus strain: DSM18228 for biotransformation. The drug concentrations were measured before and after a 12-h incubation by liquid-chromatography-coupled mass spectrometry (LC–MS); details: 2 µM
[2] = The drug is tested on Bacteroides finegoldii strain: DSM17565 for biotransformation. The drug concentrations were measured before and after a 12-h incubation by liquid-chromatography-coupled mass spectrometry (LC–MS); details: 2 µM
[3] = The drug is tested on Bacteroides uniformis strain: ATCC8492 for biotransformation. The drug concentrations were measured before and after a 12-h incubation by liquid-chromatography-coupled mass spectrometry (LC–MS); details: 2 µM
[4] = The drug is tested on Bacteroides vulgatus strain: ATCC8482 for biotransformation. The drug concentrations were measured before and after a 12-h incubation by liquid-chromatography-coupled mass spectrometry (LC–MS); details: phocaeicola vulgatus, 2 µM
[5] = The drug is tested on Parabacteroides merdae strain: ATCC43184 for biotransformation. The drug concentrations were measured before and after a 12-h incubation by liquid-chromatography-coupled mass spectrometry (LC–MS); details: 2 µM
[6] = The drug is tested on Anaerococcus hydrogenalis strain: DSM7454 for biotransformation. The drug concentrations were measured before and after a 12-h incubation by liquid-chromatography-coupled mass spectrometry (LC–MS); details: 2 µM
[7] = The drug is tested on Clostridium ramosum strain: DSM1402 for biotransformation. The drug concentrations were measured before and after a 12-h incubation by liquid-chromatography-coupled mass spectrometry (LC–MS); details: thomasclavelia ramosa, 2 µM
[8] = The drug is tested on Coprococcus comes strain: ATCC27758 for biotransformation. The drug concentrations were measured before and after a 12-h incubation by liquid-chromatography-coupled mass spectrometry (LC–MS); format: ADME; design: dose 2 uM, timepoint 0 vs 12 hours; details: 2 µM
[9] = The drug is tested on Enterococcus faecalis strain: V583 for biotransformation. The drug concentrations were measured before and after a 12-h incubation by liquid-chromatography-coupled mass spectrometry (LC–MS); details: 2 µM
[10] = The drug is tested on Enterobacter cancerogenus strain: ATCC35316 for biotransformation. The drug concentrations were measured before and after a 12-h incubation by liquid-chromatography-coupled mass spectrometry (LC–MS); details: 2 µM
[11] = bacteroides fragilis, 12 h, 2 µM
Description: The drug is tested on Bacteroides fragilis strain: DS-208 for biotransformation. The drug concentrations were measured before and after a 12-h incubation by liquid-chromatography-coupled mass spectrometry (LC–MS)

[12] = bacteroides thetaiotaomicron, 12 h, 2 µM
Description: The drug is tested on Bacteroides thetaiotaomicron strain: 7330 for biotransformation. The drug concentrations were measured before and after a 12-h incubation by liquid-chromatography-coupled mass spectrometry (LC–MS)

[13] = roseburia intestinalis, 12 h, 2 µM
Description: The drug is tested on Roseburia intestinalis strain: L1-82 for biotransformation. The drug concentrations were measured before and after a 12-h incubation by liquid-chromatography-coupled mass spectrometry (LC–MS)

[14] = The drug is tested on Bifidobacterium ruminantium strain: fecal isolate for biotransformation. The drug concentrations were measured before and after a 12-h incubation by liquid-chromatography-coupled mass spectrometry (LC–MS); details: 2 µM
[15] = The drug is tested on Alistipes indistinctus strain: DSM22520 for biotransformation. The drug concentrations were measured before and after a 12-h incubation by liquid-chromatography-coupled mass spectrometry (LC–MS); details: 2 µM
[16] = The drug is tested on Bacteroides dorei strain: DSM17855 for biotransformation. The drug concentrations were measured before and after a 12-h incubation by liquid-chromatography-coupled mass spectrometry (LC–MS); details: phocaeicola dorei, 2 µM
[17] = bacteroides thetaiotaomicron, 12 h, 2 µM; remark: listed apart in the source
Description: The drug is tested on Bacteroides thetaiotaomicron strain: VPI-5482 for biotransformation. The drug concentrations were measured before and after a 12-h incubation by liquid-chromatography-coupled mass spectrometry (LC–MS)

[18] = The drug is tested on Escherichia coli strain: BW25113 for biotransformation. The drug concentrations were measured before and after a 12-h incubation by liquid-chromatography-coupled mass spectrometry (LC–MS); details: 2 µM

| SMILES | Bacterial Biotransformation [1] | Bacterial Biotransformation [2] | Bacterial Biotransformation [3] | Bacterial Biotransformation [4] | Bacterial Biotransformation [5] | Bacterial Biotransformation [6] | Bacterial Biotransformation [7] | Bacterial Biotransformation [8] | Bacterial Biotransformation [9] | Bacterial Biotransformation [10] | Bacterial Biotransformation [11] | Bacterial Biotransformation [12] | Bacterial Biotransformation [13] | Bacterial Biotransformation [14] | Bacterial Biotransformation [15] | Bacterial Biotransformation [16] | Bacterial Biotransformation [17] | Bacterial Biotransformation [18] |
| --- | --- | --- | --- | --- | --- | --- | --- | --- | --- | --- | --- | --- | --- | --- | --- | --- | --- | --- |
| CN(C)CCc1c[nH]c2ccc(CS(=O)(=O)N3CCCC3)cc12 [ALMOTRIPTAN] | Compound NOT metabolized | Compound NOT metabolized | Compound NOT metabolized | Compound NOT metabolized | Compound NOT metabolized | Compound NOT metabolized | Compound NOT metabolized | Compound NOT metabolized | Compound NOT metabolized | Compound NOT metabolized | Compound NOT metabolized | Compound NOT metabolized | Compound NOT metabolized | – | – | – | – | – |
| CC(C)NCC(O)COc1ccc(COCCOC(C)C)cc1.CC(C)NCC(O)COc1ccc(COCCOC(C)C)cc1.O=C(O)/C=C/C(=O)O (stereo unspecified) [BISOPROLOL FUMARATE] | Compound NOT metabolized | Compound NOT metabolized | – | Compound NOT metabolized | Compound NOT metabolized | Compound NOT metabolized | Compound NOT metabolized | Compound NOT metabolized | Compound NOT metabolized | – | Compound NOT metabolized | Compound NOT metabolized | Compound NOT metabolized | Compound NOT metabolized | Compound NOT metabolized | Compound NOT metabolized | Compound NOT metabolized | – |
| CC(C)NCC(O)COc1ccc(CCOCC2CC2)cc1 (stereo unspecified) [BETAXOLOL] | Compound NOT metabolized | Compound NOT metabolized | Compound NOT metabolized | – | Compound NOT metabolized | Compound NOT metabolized | Compound NOT metabolized | Compound NOT metabolized | Compound NOT metabolized | – | Compound NOT metabolized | Compound NOT metabolized | Compound NOT metabolized | – | Compound NOT metabolized | – | Compound NOT metabolized | Compound NOT metabolized |
| CCN(CC)CCNC(=O)c1ccc(NC(C)=O)cc1 [ACECAINIDE] | Compound NOT metabolized | Compound NOT metabolized | Compound metabolized | Compound NOT metabolized | – | Compound NOT metabolized | Compound NOT metabolized | Compound NOT metabolized | Compound NOT metabolized | – | Compound NOT metabolized | Compound NOT metabolized | Compound NOT metabolized | – | Compound NOT metabolized | – | Compound NOT metabolized | Compound NOT metabolized |
| CCCC(=O)Nc1ccc(OCC(O)CNC(C)C)c(C(C)=O)c1 (stereo unspecified) [ACEBUTOLOL] | Compound NOT metabolized | Compound NOT metabolized | Compound NOT metabolized | – | Compound NOT metabolized | Compound NOT metabolized | Compound NOT metabolized | Compound NOT metabolized | Compound NOT metabolized | Compound NOT metabolized | – | Compound NOT metabolized | Compound NOT metabolized | Compound NOT metabolized | – | Compound NOT metabolized | Compound NOT metabolized | Compound NOT metabolized |
| CC(C)NCC(O)COc1ccc(CC(N)=O)cc1 (stereo unspecified) [ATENOLOL] | – | Compound NOT metabolized | – | Compound NOT metabolized | – | Compound NOT metabolized | – | Compound NOT metabolized | Compound NOT metabolized | Compound NOT metabolized | – | – | Compound NOT metabolized | Compound NOT metabolized | – | – | – | Compound NOT metabolized |
| Clc1cccc(Cl)c1N=C1NCCN1 [CLONIDINE] | Compound metabolized | Compound NOT metabolized | Compound metabolized | – | Compound NOT metabolized | Compound NOT metabolized | Compound NOT metabolized | Compound NOT metabolized | Compound NOT metabolized | Compound NOT metabolized | Compound metabolized | Compound metabolized | Compound NOT metabolized | Compound NOT metabolized | – | Compound metabolized | Compound metabolized | Compound NOT metabolized |
| c1ccc([C@H]2CN3CCSC3=N2)cc1 [LEVAMISOLE] | Compound metabolized | Compound NOT metabolized | Compound metabolized | Compound metabolized | Compound NOT metabolized | Compound metabolized | – | Compound metabolized | Compound NOT metabolized | – | Compound metabolized | Compound metabolized | Compound NOT metabolized | Compound NOT metabolized | – | Compound metabolized | Compound metabolized | Compound metabolized |
| COc1cc(NC(C)CCCN)c2ncccc2c1.O=P(O)(O)O.O=P(O)(O)O (stereo unspecified) [PRIMAQUINE PHOSPHATE] | Compound NOT metabolized | Compound metabolized | Compound metabolized | Compound NOT metabolized | Compound NOT metabolized | Compound metabolized | – | Compound NOT metabolized | – | – | Compound NOT metabolized | – | Compound NOT metabolized | Compound metabolized | Compound NOT metabolized | – | – | Compound metabolized |
| CCOC(=O)[C@H](CCc1ccccc1)N[C@@H](C)C(=O)N1[C@H](C(=O)O)C[C@H]2CCCC[C@@H]21 [TRANDOLAPRIL] | – | Compound NOT metabolized | Compound metabolized | Compound metabolized | Compound NOT metabolized | Compound metabolized | Compound NOT metabolized | Compound NOT metabolized | – | Compound NOT metabolized | Compound metabolized | – | Compound NOT metabolized | Compound metabolized | Compound NOT metabolized | Compound metabolized | – | – |
| Br.CN(C)CCCC1(c2ccc(F)cc2)OCc2cc(C#N)ccc21 (stereo unspecified) [CITALOPRAM HYDROBROMIDE] | Compound NOT metabolized | Compound NOT metabolized | – | Compound NOT metabolized | Compound NOT metabolized | Compound NOT metabolized | Compound NOT metabolized | Compound NOT metabolized | Compound NOT metabolized | – | Compound NOT metabolized | Compound NOT metabolized | Compound NOT metabolized | Compound NOT metabolized | Compound NOT metabolized | – | Compound NOT metabolized | Compound NOT metabolized |
